Patent US9902701B2, “Pyridazones and triazinones for treatment and prophylaxis of hepatitis B virus infection” (priority 2014, dated 2018)

Test system: HBsAg
Experiment: HBsAg assay: chemiluminescence immunoassay (CLIA) of secreted HBsAg in supernatant of HepG2.2.15 cells
Format: cell-based, HBV
Conditions: Hepatitis B virus
Description: HepG2.2.15 cells (Acs et al. Proc Natl Acad Sci USA, 84, (1987), 4641-4), a constitutively HBV-expressing cell line were cultured in DMEM+Glutamax-I medium (Invitrogen, Carlsbad, Calif., USA), supplemented with 10% fetal bovine serum (Invitrogen) and G418 (Invitrogen) at a final concentration of 200 mg/L and maintained in 5% CO2 at 37° C.
HepG2.2.15 cells were seeded in duplicate into white, 96-well plates at 1.5×10^4 cells/well. The cells were treated with a three-fold serial dilution series of the compounds in DMSO. The final DMSO concentration in all wells was 1% and DMSO was used as no drug control.
The HBsAg chemiluminescence immunoassay (CLIA) kit (Autobio Diagnostics Co., Zhengzhou, China, Catalog number: CL0310-2) was used to measure the levels of secreted HBV antigens semi-quantitatively. For the detection 50 μL/well culture supernatant was used and HBsAg was quantified using HBsAg chemiluminescence immunoassay (CLIA) kit (Autobio Diagnostics Co., Zhengzhou, China, Catalog number: CL0310-2), 50 μL of the supernatant was transferred to the CLIA assay plate and 50 μL of enzyme conjugate reagent was added into each well. The plates were sealed and gently agitated for 1 hour at room temperature. The supernatant-enzyme-mixture was discarded and wells were washed 6 times with 300 μL of PBS. The residual liquid was removed by plating the CLIA plate […] on absorbent tissue paper. 25 μL of substrates A and B were added to each well. Luminance was measured using a luminometer (Mithras LB 940 Multimode Microplate Reader) after 10 minutes incubation. Dose-response curves were generated and the IC50 value was extrapolated by using the E-WorkBook Suite (ID Business Solutions Ltd., Guildford, UK). The IC50 was defined as the compound concentration (or conditioned media log dilution) at which HBsAg secretion was reduced by 50% compared to the no drug control.

Row | SMILES | IC50 [nM]
1 | CN(C(=O)CN1N=C(c2ccc(F)cc2F)CCC1=O)c1ccc(Cl)cc1 [Example 1-33, N-(4-Chlorophenyl)-2-[3-(2,4-difluorophenyl)-6-oxo-4,5-dihydropyridazin-1-yl]-N-methyl-acetamide] | 850
2 | CN(C(=O)CN1N=C(c2ccc(F)cc2F)CCC1=O)c1cccc(F)c1 [Example 1-34, 2-[3-(2,4-Difluorophenyl)-6-oxo-4,5-dihydropyridazin-1-yl]-N-(3-fluorophenyl)-N-methyl-acetamide] | 1250
3 | Cc1cc(C2=NN(CC(=O)N(C)c3cccc(C(F)(F)F)c3)C(=O)CC2)ccc1F [Example 1-35, 2-[3-(4-Fluoro-3-methyl-phenyl)-6-oxo-4,5-dihydropyridazin-1-yl]-N-methyl-N-[3-(trifluoromethyl)phenyl]acetamide] | 4660
4 | Cc1cc(C2=NN(CC(=O)N(C)c3ccc(C(F)(F)F)cc3)C(=O)CC2)ccc1F [Example 1-36, 2-[3-(4-Fluoro-3-methyl-phenyl)-6-oxo-4,5-dihydropyridazin-1-yl]-N-methyl-N-[4-(trifluoromethyl)phenyl]acetamide] | 3100
5 | Cc1cc(C2=NN(CC(=O)N(C)c3ccc(F)c(C(F)(F)F)c3)C(=O)CC2)ccc1F [Example 1-37, 2-[3-(4-Fluoro-3-methyl-phenyl)-6-oxo-4,5-dihydropyridazin-1-yl]-N-[4-fluoro-3-(trifluoromethyl)phenyl]-N-methyl-acetamide] | 3140
6 | Cc1cc(C2=NN(CC(=O)N(C)c3ccc(C(F)(F)F)c(F)c3)C(=O)CC2)ccc1F [Example 1-38, 2-[3-(4-Fluoro-3-methyl-phenyl)-6-oxo-4,5-dihydropyridazin-1-yl]-N-[3-fluoro-4-(trifluoromethyl)phenyl]-N-methyl-acetamide] | 2350
7 | CN(C(=O)CN1N=C(c2ccc(C(F)(F)F)cc2)CCC1=O)c1cccc(Cl)c1 [Example 1-39, N-(3-Chlorophenyl)-N-methyl-2-[6-oxo-3-[4-(trifluoromethyl)phenyl]-4,5-dihydropyridazin-1-yl]acetamide] | 369
8 | CN(C(=O)CN1N=C(c2ccc(C(F)(F)F)cc2)CCC1=O)c1ccc(C(F)(F)F)cc1 [Example 1-40, N-Methyl-2-[6-oxo-3-[4-(trifluoromethyl)phenyl]-4,5-dihydropyridazin-1-yl]-N-[4-(trifluoromethyl)phenyl]acetamide] | 380
9 | CN(C(=O)CN1N=C(c2ccc(C(F)(F)F)cc2)CCC1=O)c1cccc(C(F)(F)F)c1 [Example 1-41, N-Methyl-2-[6-oxo-3-[4-(trifluoromethyl)phenyl]-4,5-dihydropyridazin-1-yl]-N-[3-(trifluoromethyl)phenyl]acetamide] | 250
10 | CN(C(=O)CN1N=C(c2ccc(C(F)(F)F)cc2)CCC1=O)c1cccc(F)c1 [Example 1-42, N-(3-Fluorophenyl)-N-methyl-2-[6-oxo-3-[4-(trifluoromethyl)phenyl]-4,5-dihydropyridazin-1-yl]acetamide] | 520
11 | CN(C(=O)CN1N=C(c2ccc(C(F)(F)F)cc2)CCC1=O)c1ccc(F)cc1 [Example 1-43, N-(4-Fluorophenyl)-N-methyl-2-[6-oxo-3-[4-(trifluoromethyl)phenyl]-4,5-dihydropyridazin-1-yl]acetamide] | 2470
12 | CN(C(=O)CN1N=C(c2ccc(C(F)(F)F)cc2)CCC1=O)c1ccc(Cl)cc1 [Example 1-44, N-(4-Chlorophenyl)-N-methyl-2-[6-oxo-3-[4-(trifluoromethyl)phenyl]-4,5-dihydropyridazin-1-yl]acetamide] | 960
13 | CN(C(=O)CN1N=C(c2ccc(Cl)c(Cl)c2)CCC1=O)c1ccc(C(F)(F)F)cc1 [Example 1-45, 2-[3-(3,4-Dichlorophenyl)-6-oxo-4,5-dihydropyridazin-1-yl]-N-methyl-N-[4-(trifluoromethyl)phenyl]acetamide] | 230
14 | CN(C(=O)CN1N=C(c2ccc(Cl)c(Cl)c2)CCC1=O)c1ccc(Cl)cc1 [Example 1-46, N-(4-Chlorophenyl)-2-[3-(3,4-dichlorophenyl)-6-oxo-4,5-dihydropyridazin-1-yl]-N-methyl-acetamide] | 420
15 | CN(C(=O)CN1N=C(c2ccc(F)cc2)CCC1=O)c1ccccc1 [Example 1-47, 2-[3-(4-Fluorophenyl)-6-oxo-4,5-dihydropyridazin-1-yl]-N-methyl-N-phenyl-acetamide] | 8930
16 | CN(C(=O)CN1N=C(c2ccc(F)cc2)CCC1=O)c1ccc(Cl)cc1 [Example 1-48, N-(4-Chlorophenyl)-2-[3-(4-fluorophenyl)-6-oxo-4,5-dihydropyridazin-1-yl]-N-methyl-acetamide] | 1880

Row | SMILES | IC50 [nM]
17 | CN(C(=O)CN1N=C(c2ccc(Br)cc2)CCC1=O)c1ccccc1 [Example 1-49, 2-[3-(4-Bromophenyl)-6-oxo-4,5-dihydropyridazin-1-yl]-N-methyl-N-phenyl-acetamide] | 3870
18 | CN(C(=O)CN1N=C(c2ccc(Br)cc2)CCC1=O)c1ccc(Cl)cc1 [Example 1-50, 2-[3-(4-Bromophenyl)-6-oxo-4,5-dihydropyridazin-1-yl]-N-(4-chlorophenyl)-N-methyl-acetamide] | 1230
19 | CN(C(=O)CN1N=C(c2ccc(Br)cc2)CCC1=O)c1ccc(C(F)(F)F)cc1 [Example 1-51, 2-[3-(4-Bromophenyl)-6-oxo-4,5-dihydropyridazin-1-yl]-N-methyl-N-[4-(trifluoromethyl)phenyl]acetamide] | 1160
20 | CN(C(=O)CN1N=C(c2ccc(F)c(F)c2)CCC1=O)c1cccc(C(F)(F)F)c1 [Example 1-52, 2-[3-(3,4-Difluorophenyl)-6-oxo-4,5-dihydropyridazin-1-yl]-N-methyl-N-[3-(trifluoromethyl)phenyl]acetamide] | 470
21 | CN(C(=O)CN1N=C(c2ccc(F)c(F)c2)CCC1=O)c1ccc(C(F)(F)F)cc1 [Example 1-53, 2-[3-(3,4-Difluorophenyl)-6-oxo-4,5-dihydropyridazin-1-yl]-N-methyl-N-[4-(trifluoromethyl)phenyl]acetamide] | 860
22 | CN(C(=O)CN1N=C(c2ccc(Cl)cc2Cl)CCC1=O)c1ccc(Cl)cc1 [Example 1-54, N-(4-Chlorophenyl)-2-[3-(2,4-dichlorophenyl)-6-oxo-4,5-dihydropyridazin-1-yl]-N-methyl-acetamide] | 1930
23 | CN(C(=O)CN1N=C(c2ccc(C#N)cc2)CCC1=O)c1ccc(Cl)cc1 [Example 1-55, N-(4-Chlorophenyl)-2-[3-(4-cyanophenyl)-6-oxo-4,5-dihydropyridazin-1-yl]-N-methyl-acetamide] | 3820
24 | Cc1ccc(C2=NN(CC(=O)N(C)c3ccc(Cl)cc3)C(=O)CC2)cc1 [Example 1-56, N-(4-Chlorophenyl)-N-methyl-2-[6-oxo-3-(p-tolyl)-4,5-dihydropyridazin-1-yl]acetamide] | 9510
25 | CN(C(=O)CN1N=C(c2cccc(Cl)c2)CCC1=O)c1ccc(Cl)cc1 [Example 1-57, N-(4-Chlorophenyl)-2-[3-(3-chlorophenyl)-6-oxo-4,5-dihydropyridazin-1-yl]-N-methyl-acetamide] | 3020
26 | CN(C(=O)Cn1nc(-c2ccc(Cl)cc2)ccc1=O)c1ccc(C(F)(F)F)cc1 [Example 2-1, 2-[3-(4-Chlorophenyl)-6-oxo-pyridazin-1-yl]-N-methyl-N-[4-(trifluoromethyl)phenyl]acetamide] | 900
27 | CN(C(=O)Cn1nc(-c2ccc(Cl)c(F)c2)ccc1=O)c1ccc(C(F)(F)F)cc1 [Example 2-2, 2-[3-(4-Chloro-3-fluorophenyl)-6-oxo-pyridazin-1-yl]-N-methyl-N-[4-(trifluoromethyl)phenyl]acetamide] | 520
28 | CN(C(=O)Cn1nc(-c2ccc(Cl)cc2F)ccc1=O)c1ccc(C(F)(F)F)cc1 [Example 2-3, 2-[3-(4-Chloro-2-fluoro-phenyl)-6-oxo-pyridazin-1-yl]-N-methyl-N-[4-(trifluoromethyl)phenyl]acetamide] | 1500
29 | CN(C(=O)Cn1nc(-c2c(F)cccc2Cl)ccc1=O)c1ccc(C(F)(F)F)cc1 [Example 2-4, 2-[3-(2-Chloro-6-fluoro-phenyl)-6-oxo-pyridazin-1-yl]-N-methyl-N-[4-(trifluoromethyl)phenyl]acetamide] | 4760
30 | CN(C(=O)Cn1nc(-c2ccc(Cl)cc2)ccc1=O)c1ccc(Cl)cc1 [Example 2-5, N-(4-Chlorophenyl)-2-[3-(4-chlorophenyl)-6-oxo-pyridazin-1-yl]-N-methyl-acetamide] | 1770
31 | CN(C(=O)CN1N=C(c2ccc(Cl)cc2)CNC1=O)c1ccc(C(F)(F)F)cc1 [Example 3-1, 2-[6-(4-Chlorophenyl)-3-oxo-4,5-dihydro-1,2,4-triazin-2-yl]-N-methyl-N-[4-(trifluoromethyl)phenyl]acetamide] | 10300
32 | CN(C(=O)Cn1nc(-c2ccc(Cl)cc2)cnc1=O)c1ccc(Cl)cc1 [Example 3-2, N-(4-Chlorophenyl)-2-[6-(4-chlorophenyl)-3-oxo-1,2,4-triazin-2-yl]-N-methyl-acetamide] | 6230
